Test results reported in patent US9365563B2, “TRPV1 antagonists including dihydroxy substituent and uses thereof” (Purdue Pharma L.P., priority 2007, dated 2016).
Where two headings read alike, the source gives them in different places.

What was measured:
[1] = tested on: FCA-induced inflammation of the rat hind paw; assay: FCA model of inflammatory pain (thermal hyperalgesia, plantar test); assay type: in vivo; conditions: for ED50: read-out: ED50 for reversal of FCA-induced thermal hyperalgesia
Method: Each experiment uses rats weighing between 200-260 g at the start of the experiment. The rats are group-housed and have free access to food and water at all times, except prior to oral administration of a compound of formula I when food is removed for 16 hours before dosing. A control group acts as a comparison to rats treated with a compound of formula I. The control group is administered the carrier for the compound of formula I. The volume of carrier administered to the control group is the same as the volume of carrier and compound of formula I administered to the test group.
To assess the actions of the compounds of formula I on the treatment or prevention of inflammatory pain the Freund's complete adjuvant (“FCA”) model of inflammatory pain is used. FCA-induced inflammation of the rat hind paw is associated with the development of persistent inflammatory mechanical and thermal hyperalgesia and provides reliable prediction of the anti-hyperalgesic action of clinically useful analgesic drugs (L. Bartho et al., “Involvement of Capsaicin-sensitive Neurones in Hyperalgesia and Enhanced Opioid Antinociception in Inflammation,” Naunyn-Schmiedeberg's Archives of Pharmacol. 342:666-670 (1990)). The left hind paw of each animal is administered a 50 μL intraplantar injection of 50% FCA. 24 hour post injection, the animal is assessed for response to noxious mechanical stimuli by determining the PWT, or to noxious thermal stimuli by determining the PWL, as described below. […] Responses to noxious mechanical or thermal stimuli are then determined 1, 3, 5 and 24 hours post administration. […]
The plantar test can be used to assess thermal hyperalgesia. For this test, hind paw withdrawal latencies (PWL) to a noxious thermal stimulus are determined using a plantar test apparatus (commercially available from Ugo Basile of Italy) following the technique described by K. Hargreaves et al., “A New and Sensitive Method for Measuring Thermal Nociception in Cutaneous Hyperalgesia,” Pain 32(1):77-88 (1988). […] Three latencies are determined at each time point and averaged. […]

[2] = Aqueous solubility; assay type: physicochemical
[3] = target: T1, human TRPV1 (Homo sapiens (Human), UniProt Q8NER1); assay: pH-based assay, Protocol 2 (hpH-CHO); assay type: cell-based; conditions: TRPV1/CHO cells, pH 5.0-5.1; mean ± SEM; read-out: TRPV1 IC50 Potency Human pH CHO (hpH-CHO)
Text: For Protocol 2, a Chinese Hamster Ovary cell line (CHO) that has been engineered to constitutively express human recombinant TRPV1 was used (TRPV1/CHO cells). The TRPV1/CHO cell line was generated as described below.
The resulting PCR products were purified from agarose gels using Gel Band Purification Kit (GE Healthcare Bioscience) and were subcloned into pCR-Blunt vector (Invitrogen). The cloned cDNA was fully sequenced using a fluorescent dye-terminator reagent (BigDye Terminator ver3.1 Cycle Sequencing Kit, Applied Biosystems) and ABI Prism 3100 genetic analyzer (Applied Biosystems). The pCR-Blunt vector containing the hTRPV1 cDNA was subjected to restriction digestion with EcoR1. […] The sequence of the cDNA encoding TRPV1 is available at GenBank accession number AJ277028.
CHO-K1 cells were maintained in growth medium consisting of α-MEM, 10% FBS (Hyclone), and 100 IU/mL of penicillin-100 μg/mL of streptomycin mixed solution (Nacalai Tesque, Japan) at 37° C. in an environment of humidified 95% air and 5% CO2. […] 24 hr after transfection, neomycin-resistant cells were selected using 1 mg/mL G418 (Nacalai Tesque). […]
(5) The Fura-2 fluorescent intensity was monitored at a wavelength of 340 nm and at 380 nm, respectively, at a rate of 0.5 Hz for a total of 240 seconds.

[4] = Bioavailability following oral administration; assay type: in vivo
[5] = Plasma concentration after administration to an animal; assay type: in vivo
[6] = target: T1, human TRPV1; assay: Capsaicin-based assay, Protocol 2 (hCAP-CHO); assay type: cell-based; conditions: TRPV1/CHO cells, 100 nM capsaicin; mean ± SEM; read-out: TRPV1 IC50 Potency Human Capsaicin CHO (hCAP-CHO)
Text: The TRPV1/CHO cell line was generated as described below. […] The resulting PCR products were purified from agarose gels using Gel Band Purification Kit (GE Healthcare Bioscience) and were subcloned into pCR-Blunt vector (Invitrogen). The cloned cDNA was fully sequenced using a fluorescent dye-terminator reagent (BigDye Terminator ver3.1 Cycle Sequencing Kit, Applied Biosystems) and ABI Prism 3100 genetic analyzer (Applied Biosystems). The pCR-Blunt vector containing the hTRPV1 cDNA was subjected to restriction digestion with EcoR1. The restriction fragment was subcloned into expression vector pcDNA3.1(-) (Invitrogen) and named pcDNA3.1(-)-hVR1 plasmid. The sequence of the cDNA encoding TRPV1 is available at GenBank accession number AJ277028. […] The cells were transfected with the pcDNA3.1(-)-hVR1 plasmid using FuGENE6 (Roche) according to the manufacturer's protocol. 24 hr after transfection, neomycin-resistant cells were selected using 1 mg/mL G418 (Nacalai Tesque). […] The cells expressing hTRPV1 were cultured in the growth medium supplemented with 1 mg/mL G418. […] Subsequently, the cells were loaded by incubation in 0.1 mL of wash buffer containing Fluo-4 at 3 μM final concentration. After 1 hour, the cells were washed twice with 0.2 mL wash buffer and resuspended in 0.1 mL wash buffer. The plates were then transferred to a Fluorescence Imaging Plate Reader (Molecular Devices). Fluorescence intensity was monitored for 15 seconds to establish a baseline. […] The final concentration of the compound was adjusted to range from 100 μM to 1.5625 μM. […] Data were collected over the entire time course and analyzed using Excel and the curve-fitting formula GraphPad Prism.

T1 sequence (Q8NER1 whole entry): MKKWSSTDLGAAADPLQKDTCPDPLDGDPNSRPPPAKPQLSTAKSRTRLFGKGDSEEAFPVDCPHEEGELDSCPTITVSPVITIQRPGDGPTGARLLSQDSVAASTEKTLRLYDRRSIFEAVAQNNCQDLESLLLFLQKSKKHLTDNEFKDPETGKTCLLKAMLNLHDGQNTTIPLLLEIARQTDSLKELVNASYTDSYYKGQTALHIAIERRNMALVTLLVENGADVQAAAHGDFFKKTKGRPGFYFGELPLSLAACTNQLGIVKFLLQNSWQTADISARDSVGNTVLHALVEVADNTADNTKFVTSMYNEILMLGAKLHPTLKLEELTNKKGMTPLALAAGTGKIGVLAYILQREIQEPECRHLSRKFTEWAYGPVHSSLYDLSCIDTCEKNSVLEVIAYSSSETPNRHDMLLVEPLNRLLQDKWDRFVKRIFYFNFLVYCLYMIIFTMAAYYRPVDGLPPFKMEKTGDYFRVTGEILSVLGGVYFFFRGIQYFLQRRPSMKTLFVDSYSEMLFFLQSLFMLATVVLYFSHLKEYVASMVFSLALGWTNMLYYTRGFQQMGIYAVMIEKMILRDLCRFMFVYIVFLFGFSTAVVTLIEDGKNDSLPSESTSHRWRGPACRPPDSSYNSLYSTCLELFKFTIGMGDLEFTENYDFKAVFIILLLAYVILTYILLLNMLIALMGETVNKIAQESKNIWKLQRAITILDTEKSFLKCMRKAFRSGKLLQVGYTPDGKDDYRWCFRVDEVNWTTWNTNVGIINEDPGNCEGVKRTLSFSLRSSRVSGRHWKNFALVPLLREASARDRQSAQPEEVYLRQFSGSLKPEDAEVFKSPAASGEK

SMILES: O=C(Nc1ccc(C(F)(F)F)c(Cl)c1)N1CC=C(c2ncc([C@H](O)CO)cc2Cl)CC1 [Compound D2, (S)-3-Chloro-5-(1,2-dihydroxy-ethyl)-3′,6′-dihydro-2′H-[2,4]bipyridinyl-1′-carboxylic acid (3-chloro-4-trifluoromethyl-phenyl)amide]
- ED50 ([1]; 3 hours after administration): 0.95 mg/kg
- maximum % reversal of FCA-induced thermal hyperalgesia ([1]; 5 hours after administration): 78.7%
- ED50 ([1]; 5 hours after administration): 1.63 mg/kg

SMILES: N#CCc1cnc(C2=CCN(C(=O)Nc3ccc(C(F)(F)F)cc3)CC2)c(Cl)c1 [Compound E6, 4-(3-chloro-5-(cyanomethyl)pyridin-2-yl)-N-(4-(trifluoromethyl)phenyl)-5,6-dihydropyridine-1(2H)-carboxamide]
- aqueous solubility at pH 1.2 ([2]; pH 1.2): 27.2 μM
- aqueous solubility at pH 6.8 ([2]; pH 6.8): 9.0 μM
- IC50 [3]: 164 nM

SMILES: O=C(Nc1ccc(C(F)(F)F)cn1)N1CCC(F)(c2ncc([C@H](O)CO)cc2Cl)CC1 [Compound G1]
- bioavailability ([4]; in vivo, read-out: bioavailable following oral administration): 70.7%

SMILES: CC(O)(CO)c1cnc(C2=CCN(C(=O)Nc3ccc(C(F)(F)F)cc3)CC2)c(Cl)c1 (stereo not shown) [Compound R6]
- time to maximum plasma concentration after administration ([5]; animal plasma): 1.85 h
- maximum plasma concentration relative to the maximum for compound 200 ([5]; animal plasma, for a given dose): 5.3 times
- plasma concentration up to 24 h compared with compound 200 ([5]; up to 24 h): consistently greater
- bioavailable following oral administration [4]: 68.9%

SMILES: O=C(Nc1ccc(OC(F)(F)F)c(Cl)c1)N1CC=C(c2ncc([C@H](O)CO)cc2Cl)CC1 [Compound Y1, (S)-3-Chloro-5-(1,2-dihydroxy-ethyl)-3′,6′-dihydro-2′H-[2,4]bipyridinyl-1′-carboxylic acid (3-chloro-4-trifluoromethoxy-phenyl)amide]
- IC50 [6]: 74.7 ± 18.4 nM
- IC50 [3]: 13.5 ± 1.2 nM
